From patent US8231887B2, “Pesticidal compositions” (BASF Corporation, priority 2008, dated 2012)
“And” between values parts separate entries of the source, which are not always exact repeats. Equal entries are not always repeated.

Tests used:
[1] = system: cockroaches; assay: Topical toxicity test of alcohols and/or PD23 mineral oil, dead at 24 h (Example 10); format: in vivo, Blattella germanica
Experimental: (§1) Toxicity evaluations were performed on 7-14 day old adult male and female German cockroaches (SCJ Strain, S.C. Johnson & Son, Racine, Wis.). Approximately 12 cockroaches were transferred to individual 100×20 mm polystyrene Petri dishes and anesthetized with a 15-25 second exposure to carbon dioxide. The inside edge of each Petri dish was lightly coated with mineral oil plus petroleum jelly in a 1:3 (wt/wt) ratio to minimize escape. Anesthetized cockroaches were positioned with their ventral side up, and a 1 μl drop of the diluted test composition was applied to the area between the meso- and metathoracic legs using a Rainin L-10, 10 μl capacity pipette (Rainin Instrument, LLC, Oakland, Calif.). Five replications of 12 male cockroaches were done for each test composition. Separate tests were done using female cockroaches. Results were evaluated at 24 hours following treatment. Cockroaches were scored as either alive (dorsal side up, active movement when abdomen prodded with dissecting probe) or moribund/dead (dorsal side up and no movement when abdomen prodded or ventral side up and insect unable to right itself).
The compositions comprising alcohol and/or mineral oil are described in Table 13.

[2] = system: cockroaches; assay: LD50 and LD10 of mineral oils and alcohols, dose-response mortality, probit analysis (Example 9); format: in vivo, Blattella germanica; settings: 95% CI printed in the line below
Experimental: In this example, various mineral oils and alcohols were tested to determine, for cockroaches, the LD50 and LD10 for each.
PD23 and PD28 mineral oils were obtained from Sonneborn LLC, Mahwah, N.J. The physical properties of these oils are shown in Table 11. Each mineral oil was tested to determine the LD50 and LD10 (Table 12).
The tested alcohols were obtained from Sigma-Aldrich Corp., St. Louis, Mo. Each alcohol was tested to determine the LD50 and LD10 (Table 12).

[3] = system: cockroaches; assay: 1-propanol and 1-heptanol alone and in combination with Exxsol D95 mineral oil (Example 17); format: in vivo; settings: for # dead at 24 h / Proportion dead at 24 h: individual treatment; for synergy with EXXSOL D95: result in words
[4] = system: cockroaches (all male); assay: Topical toxicity test of mineral oil and/or hexylene glycol, isopropyl myristate, dioxane or d-limonene in acetone (Examples 3-6); format: in vivo, Blattella germanica; settings: 24 hours; for # dead: 1 μl topical, remainder acetone
Experimental: as §1, with “itself). […]” for “itself).”
(§2) Tests were generally performed as described in Example 1, except the number of cockroaches (all male) tested for each composition is set forth below in Table 6, and the compositions were not further diluted with acetone in a 1:1 (wt/wt) ratio prior to testing. The results are shown in Table 6, which lists the number of cockroaches tested for each composition, the number of dead cockroaches out of the total number of cockroaches tested, the square root percent dead cockroaches, the proportion of dead cockroaches, and the arcsine square root percent dead cockroaches.
as §2, with “7,” for “6,”

[5] = system: cockroaches; assay: Topical toxicity test of various compounds and/or PD23 mineral oil, dead at 24 h (Example 12); format: in vivo, Blattella germanica; settings: for Proportion dead at 24 h: calculated proportion
Experimental: as §1

[6] = Table 14, composite data of the replicates
[7] = Table 14, composite data, calculated proportion
[8] = Table 13, per replicate of 10-16 treated cockroaches, mg per insect in the label
[9] = Table 17, composite data, listed as nitromethane (75-52-5) (0.80 mg)

## 1-butanol [Composition 1-butanol]
[1]; Table 13, per replicate of 10-16 treated cockroaches, mg per insect in the label, listed as 1-butanol (0.8 mg)
  # dead at 24 h: 0 (2×) and 1
[1]; Table 13, per replicate, listed as 1-butanol (0.8 mg)
  Proportion dead at 24 h: 0.000 (2×) and 0.100
[1]; [6]
  # dead at 24 h: 1
[1]; [7]
  Proportion dead at 24 h: 0.029
[2]
  LD10 mg/insect: 0.877 mg/insect
  LD50 mg/insect: 1.018 mg/insect

## 1-propanol [Composition 1-propanol]
[3]; 0.45 mg
  # dead at 24 h: 1
  Proportion dead at 24 h: 0.028
[3]
  synergy with EXXSOL D95: significant synergy
[1]; Table 13, per replicate of 10-16 treated cockroaches, mg per insect in the label, listed as 1-propanol (0.45 mg)
  # dead at 24 h: 1 and 0 (2×)
[1]; Table 13, per replicate, listed as 1-propanol (0.45 mg)
  Proportion dead at 24 h: 0.083 and 0.000 (2×)
[1]; [6]
  # dead at 24 h: 1
[1]; [7]
  Proportion dead at 24 h: 0.028
[2]
  LD10 mg/insect: 0.472 mg/insect
  LD50 mg/insect: 0.557 mg/insect

## 2-butanol [Composition 2-butanol]
[1]; Table 13, per replicate of 10-16 treated cockroaches, mg per insect in the label, listed as 2-butanol (0.8 mg)
  # dead at 24 h: 0 (2×) and 1
[1]; Table 13, per replicate, listed as 2-butanol (0.8 mg)
  Proportion dead at 24 h: 0.000 (2×) and 0.083
[1]; [6]
  # dead at 24 h: 1
[1]; [7]
  Proportion dead at 24 h: 0.026
[2]
  LD10 mg/insect: 0.881 mg/insect
  LD50 mg/insect: 1.188 mg/insect

## CCCCCCCCCCCCCCO [1-tetradecanol]
[1]; Table 13, per replicate of 10-16 treated cockroaches, mg per insect in the label, listed as 1-tetradecanol (1.00 mg)
  # dead at 24 h: 1 and 2
[1]; Table 13, per replicate, listed as 1-tetradecanol (1.00 mg)
  Proportion dead at 24 h: 0.083 and 0.154
[1]; [6]
  # dead at 24 h: 4
[1]; [7]
  Proportion dead at 24 h: 0.108

## CCCCOCCO [2-butoxyethanol]
[1]; Table 13, per replicate
  Proportion dead at 24 h: 0.000
[1]; [8]
  # dead at 24 h: 0
[1]; [6]
  # dead at 24 h: 0
[1]; [7]
  Proportion dead at 24 h: 0.000

## OCCc1ccccc1 [2-phenylethanol]
[1]; [6]
  # dead at 24 h: 5
[1]; [7]
  Proportion dead at 24 h: 0.106
[2]
  LD10 mg/insect: 0.075 mg/insect

## CCCCCCCCCCO [Composition 1-decanol, 1-decanol]
[1]; [6]
  # dead at 24 h: 1
[1]; [7]
  Proportion dead at 24 h: 0.027

## CCCCCCCCCCCCO [Composition 1-dodecanol, 1-dodecanol]
[1]; [6]
  # dead at 24 h: 3
[1]; [7]
  Proportion dead at 24 h: 0.077

## CCCCCCCO [Composition 1-heptanol, 1-heptanol]
[3]; 0.40 mg
  # dead at 24 h: 1
  Proportion dead at 24 h: 0.028
[3]
  synergy with EXXSOL D95: significant synergy
[1]; [6]
  # dead at 24 h: 1
[1]; [7]
  Proportion dead at 24 h: 0.028

## CCCCCCO [Composition 1-hexanol, 1-hexanol]
[1]; Table 13, per replicate
  Proportion dead at 24 h: 0.083
[1]; [8]
  # dead at 24 h: 1
[1]; [6]
  # dead at 24 h: 3
[1]; [7]
  Proportion dead at 24 h: 0.083

## CCCCCCCCCO [Composition 1-nonanol, 1-nonanol]
[1]; [6]
  # dead at 24 h: 1
[1]; [7]
  Proportion dead at 24 h: 0.024

## CCCCCCCCO [Composition 1-octanol, 1-octanol]
[1]; [6]
  # dead at 24 h: 2
[1]; [7]
  Proportion dead at 24 h: 0.054

## CCCCCCCCCCCO [Composition 1-undecanol, 1-undecanol]
[1]; [6]
  # dead at 24 h: 4
[1]; [7]
  Proportion dead at 24 h: 0.105

## CC(=O)CC(C)(C)O [Diacetone alcohol]
[1]; [6]
  # dead at 24 h: 1
[1]; [7]
  Proportion dead at 24 h: 0.025

## C1COCCO1 [Dioxane (50%), Dioxane]
[4]; Table 6, per replicate
  # dead: 0 (4×) and 1
  Arcsine square root % dead: 0
  Proportion dead: 0
  Square root % dead: 0

## CCO [Ethanol]
[1]; [6]
  # dead at 24 h: 1
[1]; [7]
  Proportion dead at 24 h: 0.027

## CC(C)O [Isopropyl alcohol]
[1]; Table 13, per replicate
  Proportion dead at 24 h: 0.000
[1]; [8]
  # dead at 24 h: 0
[1]; [6]
  # dead at 24 h: 0
[1]; [7]
  Proportion dead at 24 h: 0.000

## CO [Methanol]
[1]; Table 13, per replicate of 10-16 treated cockroaches, mg per insect in the label, listed as methanol (3.0 mg)
  # dead at 24 h: 0 (2×) and 1
[1]; Table 13, per replicate, listed as methanol (3.0 mg)
  Proportion dead at 24 h: 0.000 (2×) and 0.077
[1]; [6]
  # dead at 24 h: 1
[1]; [7]
  Proportion dead at 24 h: 0.026
[2]
  LD10 mg/insect: Estimated at ~3.000 mg/insect
  LD50 mg/insect: >7.00 mg/insect

## C=C(C)[C@H]1CC=C(C)CC1 [d-limonene (40%), d-limonene]
[4]; Table 7, per replicate
  # dead: 1 and 0 and 2 (2×)
  Arcsine square root % dead: 0
  Proportion dead: 0
  Square root % dead: 0

## CC(C)CO [isobutyl alcohol]
[1]; Table 13, per replicate of 10-16 treated cockroaches, mg per insect in the label, listed as isobutyl alcohol (0.50 mg)
  # dead at 24 h: 1
[1]; Table 13, per replicate, listed as isobutyl alcohol (0.50 mg)
  Proportion dead at 24 h: 0.071
[1]; [6]
  # dead at 24 h: 1
[1]; [7]
  Proportion dead at 24 h: 0.026

## C[N+](=O)[O-] [nitromethane (75-52-5) (0.70 mg), nitromethane]
[5]; Table 17, composite data
  # dead at 24 h: 0
[5]; [9]
  Proportion dead at 24 h: 0.179
  # dead at 24 h: 5
[5]; result in words, compared to the other compounds tested
  increase in mortality when combined with PD23 mineral oil: greatest increase in mortality

## CC(C)(C)O [tertiary butyl alcohol]
[1]; Table 13, per replicate of 10-16 treated cockroaches, mg per insect in the label, listed as t-butyl alcohol (0.5 mg)
  # dead at 24 h: 0 (3×) and 2
[1]; Table 13, per replicate, listed as t-butyl alcohol (0.5 mg)
  Proportion dead at 24 h: 0.000
[1]; [6]
  # dead at 24 h: 2
[1]; [7]
  Proportion dead at 24 h: 0.045

## Diisopropyl biphenyl
[5]; Table 17, composite data
  # dead at 24 h: 0
  Proportion dead at 24 h: 0.000

## Hexanes
[5]; compound alone, 0.80 mg
  # dead at 24 h: 1
  Proportion dead at 24 hr: 0.100
